This is an account of results in patent US6211375A, “Pyridonecarboxylic acid derivatives or salts thereof and antibacterial agents containing the same as the active ingredient” (Wakunaga Pharmaceutical Co., Ltd., priority 1996, dated 2001).

Values after ≈ are worked out from the molar mass of the structure shown. Read-outs that look alike come from different tables or passages of the source.

Series [1] deals with S.aureus 209P. Kind of series: Antibacterial Activity, minimum growth inhibitory concentration (MIC), S.aureus 209P. The following applies: Staphylococcus aureus, standard method of Japan Chemotherapy Society. In kind it is cell-based. As to the method: (§1) Minimum growth inhibitory concentration (MIC, μg/ml) was evaluated in accordance with the standard method of Japan Chemotherapy Society (Chemotherapy 29(1), 76, 1981). It should be noted that tosufloxacin was also evaluated for its minimum growth inhibitory concentration for the purpose of comparison.

Series [2] has as its system P. aeruginosa IFO3445. Kind of series: Antibacterial Activity, minimum growth inhibitory concentration (MIC), P. aeruginosa IFO3445. In kind it is cell-based. The following applies: Pseudomonas aeruginosa, standard method of Japan Chemotherapy Society. As to the method: as §1
Series [3] relates to ears. The series can be described thus: Phototoxicity Test (abnormality in the ears of mice after UVA irradiation). The following applies: 40 mg/kg i.v., UVA 320 to 400 nm, 4 hours; for ear abnormality, point: 0 = no abnormality, 1 = very slight erythema, 2 = well defined erythema, 3 = moderate to severe erythema or edema. In kind it is in vivo, Female ICR mice. The protocol: Female ICR mice (5 to 6 week old) were intravenously administered with the test compound (40 mg/kg/10 ml), and irradiated with UVA (320 to 400 nm, 1.8 mW/cm^2 /sec) for 4 hours. Abnormality in the ears was monitored at 0 hour immediately after the irradiation and after 24 hours. The ear abnormality was evaluated by the following criteria: no abnormality (0 point), very slight erythema (1 point), well defined erythema (2 points), moderate to severe erythema or edema formation (3 points). Tosufloxacin which is a conventional known antibacterial agent was also tested in a similar way for the purpose of comparison.

Series [4] can be described thus: Absorption and Excretion (urine and bile recovery rates after oral administration). In kind it is in vivo, Male SD rats. As to conditions: rat, 20 mg/kg, rats, oral 20 mg/10 ml/kg. As to the method:
A compound of the present invention was measured for its urine and bile recovery rates in rats after its oral administration to evaluate absorption and excretion of the compounds.
Male SD rats of 6 week old which had been fasted overnight were administered orally with 0.5% methylcellulose suspension of the test compounds (20 mg/10 ml/kg). The urine collection was continued until 24 hours after the administration. The concentration of the test compound in the urine was measured by paper disc method using Bacillus subtilis ATCC6633 for the test bacterium to determine the urine recovery rate.
Into choledoch duct of male SD rats of 6 week old which had been fasted overnight was inserted a polyethylene tube under etherization. After arousing, the rats were forcedly administered orally with the test compounds as in the case of the above (1), and bile collection was continued until 24 hours after the administration. The bile with no further treatment and the bile alkaline hydrolyzed (with 0.1N NaOH, 37° C., 1 hour) were measured for their concentration of the test compound by the same procedure as in the case of the above (1) to determine the bile recovery rate.

Regarding `Cc1cc(F)c(N)cc1-n1cc(C(=O)O)c(=O)c2cc(F)c(N3CC(N)C3)c(C)c21` [Compound of Ex. 4, 7-(3-aminoazetidin-1-yl)-1-(3-amino-4-fluoro-6-methylphenyl)-6-fluoro-8-methyl-1,4-dihydro-4-oxoguinoline-3-carboxylic Acid], the results for the MIC in series [1] and in series [2] were 3 ng/mL (≈ 0.00724 µM) and 0.1 µg/mL (≈ 0.241 µM), respectively. Moreover, the “ear abnormality, occurrence” value in series [3] (0 hour after irradiation) and in series [3] (24 hours after irradiation) was 0/3 in each case. The “ear abnormality, point” value in series [3] (0 hour after irradiation) and in series [3] (24 hours after irradiation) was 0 point each time.

Turning to `Cc1c(F)c(N2CC(N)C2)c(C)c2c1c(=O)c(C(=O)O)cn2-c1cc(N)c(F)cc1F` [Compound of Ex. 10, 7-(3-aminoazetidin-1-yl)-1-(3-amino-4,6-difluorophenyl)-6-fluoro-5,8-dimethyl-4-oxo-1,4-dihydroquinoline-3-carboxylic Acid], the minimum inhibitory concentration (MIC) (in general, the smallest concentration in the dilution series that meets the test's criterion for growth inhibition) in series [1] was found to be 3 ng/mL (≈ 0.00694 µM); in series [2] it was 0.1 µg/mL (≈ 0.231 µM). Moreover, the “ear abnormality, occurrence” value in series [3] (0 hour after irradiation) and in series [3] (24 hours after irradiation) was 0/3 each time. Further, the “ear abnormality, point” value in series [3] (0 hour after irradiation) and in series [3] (24 hours after irradiation) was 0 point in each case.

For `Cc1c(N2CC(N)C2)c(F)cc2c(=O)c(C(=O)O)cn(-c3cc(N)c(F)cc3Cl)c12` [Compound of Ex. 7, 7-(3-aminoazetidin-1-yl)-1-(3-amino-6-chloro-4-fluorophenyl)-6-fluoro-8-methyl-1,4-dihydro-4-oxoguinoline-3-carboxylic Acid], the MIC in series [1] turned out to be 13 ng/mL (≈ 0.0299 µM); in series [2], 0.1 µg/mL (≈ 0.23 µM). Also, the “ear abnormality, occurrence” value in series [3] (0 hour after irradiation) and in series [3] (24 hours after irradiation) was 0/3 each time. Further, the “ear abnormality, point” value in series [3] (0 hour after irradiation) and in series [3] (24 hours after irradiation) was 0 point throughout.

For `Cc1c(N2CC(C)(N)C2)c(F)cc2c(=O)c(C(=O)O)cn(-c3cc(N)c(F)cc3F)c12` [Compound of Ex. 3, 7-(3-amino-3-methylazetidin-1-yl)-1-(3-amino-4,6-difluorophenyl)-6-fluoro-8-methyl-1,4-dihydro-4-oxoguinoline-3-carboxylic Acid], the MIC in series [1] stood at 6 ng/mL (≈ 0.0139 µM); in series [2] it was 0.1 µg/mL (≈ 0.231 µM). The “ear abnormality, occurrence” value in series [3] (0 hour after irradiation) and in series [3] (24 hours after irradiation) was 0/3 in each case. Also, the “ear abnormality, point” value in series [3] (0 hour after irradiation) and in series [3] (24 hours after irradiation) was 0 point each time. Besides, the dose excreted at 24 h in series [4] (bile, 0-24 hours, bile after alkaline hydrolysis (0.1N NaOH, 37° C., 1 hour), read-out: Recovery rate (24 hours), Bile*) is 26.7%; in series [4] (bile, 0-24 hours, bile with no further treatment, read-out: Recovery rate (24 hours), Bile), 10.4%; in series [4] (urine and bile, 24 hours, total recovery rate, read-out: Recovery rate (24 hours), Total recovery rate), 30.6%; in series [4] (urine, 0-24 hours, paper disc method with Bacillus subtilis ATCC6633, read-out: Recovery rate (24 hours), Urine), 3.9%.

For `Cc1c(N2CC(O)C2)c(F)cc2c(=O)c(C(=O)O)cn(-c3cc(N)c(F)cc3F)c12` [Compound of Ex. 8, 1-(3-amino-4,6-difluorophenyl)-6-fluoro-7-(3-hydroxyazetidin-1-yl)-8-methyl-4-oxo-1,4-dihydroquinoline-3-carboxylic Acid], the figures for the minimal inhibitory concentration (MIC) in series [1] and in series [2] were 6 ng/mL (≈ 0.0143 µM) and 0.2 µg/mL (≈ 0.477 µM), respectively. Besides, the “ear abnormality, occurrence” value in series [3] (0 hour after irradiation) and in series [3] (24 hours after irradiation) was 0/3 in each case. Further, the “ear abnormality, point” value in series [3] (0 hour after irradiation) and in series [3] (24 hours after irradiation) was 0 point in each case.

`CNC1CN(c2c(F)cc3c(=O)c(C(=O)O)cn(-c4cc(N)c(F)cc4C)c3c2C)C1` [Compound of Ex. 6, 1-(3-amino-4-fluoro-6-methylphenyl)-6-fluoro-8-methyl-7-(3-methylaminoazetidin-1-yl)-1,4-dihydro-4-oxoguinoline-3-carboxylic Acid]: the MIC came to 13 ng/mL (≈ 0.0303 µM) in series [1] and 0.2 µg/mL (≈ 0.467 µM) in series [2]. The “ear abnormality, occurrence” value in series [3] (0 hour after irradiation) and in series [3] (24 hours after irradiation) was 0/3 each time. Moreover, the “ear abnormality, point” value in series [3] (0 hour after irradiation) and in series [3] (24 hours after irradiation) was 0 point in each case.

In the case of `Cc1cc(F)c(N)cc1-n1cc(C(=O)O)c(=O)c2cc(F)c(N3CC(C)(N)C3)c(C)c21` [Compound of Ex. 5, 7-(3-amino-3-methylazetidin-l-yl)-1-(3-amino-4-fluoro-6-methylphenyl)-6-fluoro-8-methyl-1,4-dihydro-4-oxoguinoline-3-carboxylic Acid], the MIC in series [1] stood at 13 ng/mL (≈ 0.0303 µM); in series [2], 0.2 µg/mL (≈ 0.467 µM). The “ear abnormality, occurrence” value in series [3] (0 hour after irradiation) and in series [3] (24 hours after irradiation) was 0/3 throughout. The “ear abnormality, point” value in series [3] (0 hour after irradiation) and in series [3] (24 hours after irradiation) was 0 point in each case.

With `NC1CCN(c2nc3c(cc2F)c(=O)c(C(=O)O)cn3-c2ccc(F)cc2F)C1` (stereo not shown) [Tosufloxacin, reference compound], the figures for the minimum inhibitory concentration (MIC) in series [1] and in series [2] were 50 ng/mL (≈ 0.124 µM) and 0.39 µg/mL (≈ 0.965 µM), respectively. The “ear abnormality, occurrence” value in series [3] (0 hour after irradiation) and in series [3] (24 hours after irradiation) was 4/5 in each case. Further, the “ear abnormality, point” value in series [3] (0 hour after irradiation) turned out to be 1.8 point; in series [3] (24 hours after irradiation), 0.8 point.

For `Cc1c(N2CC(N)C2)c(F)cc2c(=O)c(C(=O)O)cn(-c3cc(N)c(F)cc3F)c12` [Compound of Ex. 1, 7-(3-aminoazetidin-1-yl)-1-(3-amino-4,6-difluorophenyl)-6-fluoro-8-methyl-1,4-dihydro-4-oxoguinoline-3-carboxylic Acid], the minimum inhibitory concentration (MIC) in series [1] came out at 6 ng/mL (≈ 0.0143 µM); in series [2], 0.05 µg/mL (≈ 0.12 µM). For the same compound, the “ear abnormality, occurrence” value in series [3] (0 hour after irradiation) and in series [3] (24 hours after irradiation) was 0/3 in each case. Further, the “ear abnormality, point” value in series [3] (0 hour after irradiation) and in series [3] (24 hours after irradiation) was 0 point throughout.

Turning to `Cc1cc(F)c(N)cc1-n1cc(C(=O)O)c(=O)c2cc(F)c(N3CC(O)C3)c(C)c21` [Compound of Ex. 9, 1-(3-amino-4-fluoro-6-methylphenyl)-6-fluoro-7-(3-hydroxyazetidin-1-yl)-8-methyl-4-oxo-1,4-dihydroquinoline-3-carboxylic Acid], the MIC in series [1] came to 13 ng/mL (≈ 0.0313 µM); in series [2] it was 0.2 µg/mL (≈ 0.481 µM). Also, the “ear abnormality, occurrence” value in series [3] (0 hour after irradiation) and in series [3] (24 hours after irradiation) was 0/3 each time. The “ear abnormality, point” value in series [3] (0 hour after irradiation) and in series [3] (24 hours after irradiation) was 0 point each time.

As for `CNC1CN(c2c(F)cc3c(=O)c(C(=O)O)cn(-c4cc(N)c(F)cc4F)c3c2C)C1` [Compound of Ex. 2, 1-(3-amino-4,6-difluorophenyl)-6-fluoro-8-methyl-7-(3-methylaminoazetidin-1-yl)-1,4-dihydro-4-oxoguinoline-3-carboxylic Acid], the MIC in series [1] is 6 ng/mL (≈ 0.0139 µM); in series [2], 0.1 µg/mL (≈ 0.231 µM). The “ear abnormality, occurrence” value in series [3] (0 hour after irradiation) and in series [3] (24 hours after irradiation) was 0/3 each time. For the same compound, the “ear abnormality, point” value in series [3] (0 hour after irradiation) and in series [3] (24 hours after irradiation) was 0 point throughout.
